These results are taken from PubChem BioAssay AID328 (DTP/NCI, 2004).

The test system of the assay is BDF1 mice, P388 leukemia ip, median survival T/C. Briefly: NCI In Vivo Anticancer Drug Screen. Data for tumor model P388 Leukemia (intraperitoneal) in B6D2F1 (BDF1) mice. To be noted: endpoint: median survival time, higher = longer survival. A digest of the protocol:
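Read-out is survival of treated animals expressed relative to the vehicle group, as a T/C ratio.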

Setting [1] is: dose: 6.25 mg/kg/injection, schedule: Q01DX009 (ip), vehicle: water.
The mark [2] stands for this setting: dose: 12.5 mg/kg/injection, schedule: Q01DX009 (ip), vehicle: water.
Setting [3] is: dose: 12.5 mg/kg/injection, schedule: Q04DX003 (ip), vehicle: water.
The mark [4] stands for this setting: dose: 25.0 mg/kg/injection, schedule: Q01DX009 (ip), vehicle: water.
[5] abbreviates: dose: 25.0 mg/kg/injection, schedule: Q04DX003 (ip), vehicle: water.
The mark [6] stands for this setting: dose: 50.0 mg/kg/injection, schedule: Q01DX009 (ip), vehicle: water.
The mark [7] stands for this setting: dose: 100.0 mg/kg/injection, schedule: Q01DX009 (ip), vehicle: water.
[8] abbreviates: dose: 100.0 mg/kg/injection, schedule: Q04DX003 (ip), vehicle: saline with Tween-80.
Where [9] appears, read: dose: 200.0 mg/kg/injection, schedule: Q04DX003 (ip), vehicle: saline with Tween-80.
The mark [10] stands for this setting: dose: 400.0 mg/kg/injection, schedule: Q04DX003 (ip), vehicle: saline with Tween-80.
Setting [11] is: dose: 100.0 mg/kg/injection, schedule: Q04DX002 (ip), vehicle: saline with Tween-80.
Setting [12] is: dose: 200.0 mg/kg/injection, schedule: Q04DX002 (ip), vehicle: saline with Tween-80.
Setting [13] is: dose: 400.0 mg/kg/injection, schedule: Q04DX002 (ip), vehicle: saline with Tween-80.
[14] abbreviates: dose: 50.0 mg/kg/injection, schedule: Q01DX009 (ip), vehicle: saline with Tween-80.
Where [15] appears, read: dose: 100.0 mg/kg/injection, schedule: Q01DX009 (ip), vehicle: saline with Tween-80.
Setting [16] is: dose: 200.0 mg/kg/injection, schedule: Q01DX009 (ip), vehicle: saline with Tween-80.
Setting [17] is: dose: 100.0 mg/kg/injection, schedule: Q04DX003 (ip), vehicle: DMSO.

Molecules are shown by their SMILES. Where “and” joins values, the source holds several entries; their conditions need not be identical. Identical values can stand only once. Inconclusive results and toxic doses are left out.

Turning to `C[n+]1ccc(Nc2ccc(NC(=O)c3ccc([N+](=O)[O-])cc3)cc2)cc1`, the T/C is, setting by setting: under setting [1], 108 % of control; under setting [2], 96 % of control; under setting [3], 100 % of control; under setting [4], 90 % of control; under setting [5], 98 % of control and 100 % of control (2×); under setting [6], 97 % of control. In addition, the T/C by setting is: under setting [7], 107 % of control; (dose: 150.0 mg/kg/injection, schedule: Q04DX003 (ip), vehicle: water) 91 % of control.

Take `CCOc1ccc(Br)cc1/C=N/NS(=O)(=O)c1ccc(C)cc1`: the T/C under setting [8] is 109 % of control; the T/C (dose: 176.0 mg/kg/injection, schedule: Q04DX003 (ip), vehicle: saline with Tween-80) is 120 % of control; the T/C under setting [9] is 109 % of control; the T/C (dose: 264.0 mg/kg/injection, schedule: Q04DX003 (ip), vehicle: saline with Tween-80) was 120 % of control; the T/C under setting [10] is 120 % of control.

In the case of `CCOC(=S)SCC(=O)Nc1ccc(S(N)(=O)=O)cc1`, the T/C by setting is: (dose: 15.0 mg/kg/injection, schedule: Q01DX009 (ip), vehicle: saline with Tween-80) 95 % of control; (dose: 30.0 mg/kg/injection, schedule: Q01DX009 (ip), vehicle: saline with Tween-80) 104 % of control; (dose: 60.0 mg/kg/injection, schedule: Q01DX009 (ip), vehicle: saline with Tween-80) 113 % of control.

As for `Cc1ccc(C)c(NC(=O)c2cccc(Cl)c2)c1`, the T/C is, setting by setting: under setting [8], 104 % of control; under setting [9], 100 % of control; under setting [10], 104 % of control.

As for `O=C(c1ccc([N+](=O)[O-])cc1)C(Br)C(Br)c1ccncc1` (stereo unspecified), the T/C was 105 % of control (dose: 50.0 mg/kg/injection, schedule: Q01DX001 (ip), vehicle: Klucel (hydroxypropylcellulose) (HPC)); 110 % of control (dose: 100.0 mg/kg/injection, schedule: Q01DX001 (ip), vehicle: Klucel (hydroxypropylcellulose) (HPC)); 113 % of control (dose: 100.0 mg/kg/injection, schedule: Q04DX003 (ip), vehicle: Klucel (hydroxypropylcellulose) (HPC)); 115 % of control (dose: 200.0 mg/kg/injection, schedule: Q01DX001 (ip), vehicle: Klucel (hydroxypropylcellulose) (HPC)); 113 % of control (dose: 200.0 mg/kg/injection, schedule: Q04DX003 (ip), vehicle: Klucel (hydroxypropylcellulose) (HPC)); 113 % of control (dose: 400.0 mg/kg/injection, schedule: Q04DX003 (ip), vehicle: Klucel (hydroxypropylcellulose) (HPC)).

For the compound `CCc1cccc2c(NCCCCCCNc3c4ccccc4nc4c(CC)cccc34)c3ccccc3nc12`, the T/C is, setting by setting: (dose: 0.31 mg/kg/injection, schedule: Q01DX009 (ip), vehicle: lactic acid) 108 % of control; (dose: 0.62 mg/kg/injection, schedule: Q01DX009 (ip), vehicle: lactic acid) 103 % of control; (dose: 5.0 mg/kg/injection, schedule: Q01DX009 (ip), vehicle: lactic acid) 173 % of control.

Turning to `N#Cc1nnc2cc[nH]n2c1=O`, the T/C under setting [11] is 100 % of control, the T/C under setting [12] was 103 % of control and the T/C under setting [13] is 109 % of control.

As for `Nc1nc2nsnc2nc1N`, the T/C runs as follows: (dose: 1.56 mg/kg/injection, schedule: Q01DX009 (ip), vehicle: water) 111 % of control; (dose: 3.12 mg/kg/injection, schedule: Q01DX009 (ip), vehicle: water) 111 % of control; (dose: 3.12 mg/kg/injection, schedule: Q04DX003 (ip), vehicle: water) 100 % of control; under setting [1], 100 % of control; (dose: 6.25 mg/kg/injection, schedule: Q04DX003 (ip), vehicle: water) 110 % of control; under setting [2], 100 % of control. Further, the T/C under setting [3] is 100 % of control; the T/C under setting [4] is 102 % of control; the T/C under setting [5] was 110 % of control; the T/C under setting [6] was 111 % of control; the T/C (dose: 50.0 mg/kg/injection, schedule: Q04DX003 (ip), vehicle: water) was 115 % of control; the T/C under setting [7] was 118 % of control.

For the compound `CC1(C)OC1CC1=CC(=O)C=CC1=O` (stereo unspecified), the T/C is 108 % of control (dose: 25.0 mg/kg/injection, schedule: Q01DX009 (ip), vehicle: saline with Tween-80); 103 % of control under setting [14]; 100 % of control under setting [15]; 117 % of control under setting [16].

With `CC(C#N)Oc1cccc2ccccc12` (stereo unspecified), the T/C was 96 % of control (dose: 2.0 mg/kg/injection, schedule: Q01DX009 (ip), vehicle: DMSO); 115 % of control (dose: 3.0 mg/kg/injection, schedule: Q01DX009 (ip), vehicle: DMSO); 110 % of control (dose: 4.5 mg/kg/injection, schedule: Q01DX009 (ip), vehicle: DMSO); 110 % of control (dose: 6.0 mg/kg/injection, schedule: Q01DX009 (ip), vehicle: DMSO); 120 % of control (dose: 12.0 mg/kg/injection, schedule: Q01DX009 (ip), vehicle: DMSO); 88 % of control (dose: 12.5 mg/kg/injection, schedule: Q01DX009 (ip), vehicle: DMSO). For the same compound, the T/C by setting is: (dose: 25.0 mg/kg/injection, schedule: Q01DX009 (ip), vehicle: DMSO) 88 % of control; under setting [17], 100 % of control.

`CCC1(O)CC2CN(CCc3c([nH]c4ccccc34)C(C(=O)OC)(c3cc4c(cc3OC)N(C)C3C(O)(C(=O)NCCO)C(O)C5(CC)C=CCN6CCC43C65)C2)C1` (stereo unspecified): the T/C reads like this: (dose: 500.0 micrograms/kg/injection, schedule: Q04DX003 (ip), vehicle: saline) 173 % of control; (dose: 1000.0 micrograms/kg/injection, schedule: Q04DX003 (ip), vehicle: saline) 182 % of control; (dose: 2000.0 micrograms/kg/injection, schedule: Q04DX003 (ip), vehicle: saline) 219 % of control; (dose: 4000.0 micrograms/kg/injection, schedule: Q04DX003 (ip), vehicle: saline) 286 % of control.

On to `N#CC(C#N)=C1SCS1`, for which the T/C (dose: 3.12 mg/kg/injection, schedule: Q01DX009 (ip), vehicle: saline with Tween-80) was 123 % of control and the T/C (dose: 6.25 mg/kg/injection, schedule: Q01DX009 (ip), vehicle: saline with Tween-80) was 123 % of control.

For `CN(C)C1C(=O)C(C(=O)NCN2CCOB(c3ccccc3)OCC2)=C(O)C2(O)C(O)=C3C(=O)C4C(O)=CC=CC4C(C)(O)C3CC12` (stereo unspecified), the T/C by setting is: under setting [12], 93 % of control; under setting [13], 112 % of control.

In the case of `CCCCCCOc1cccc(OCCCC[N+]2(CC)CCCCC2)c1`, the T/C (dose: 6.25 mg/kg/injection, schedule: Q01DX009 (ip), vehicle: saline) is 108 % of control.

Consider `CCOS(=O)(=O)c1ccc([N+](=O)[O-])cc1[N+](=O)[O-]`, for which the T/C runs as follows: (dose: 50.0 mg/kg/injection, schedule: Q01DX001 (ip), vehicle: saline) 95 % of control; (dose: 100.0 mg/kg/injection, schedule: Q01DX001 (ip), vehicle: saline) 104 % of control; (dose: 200.0 mg/kg/injection, schedule: Q01DX001 (ip), vehicle: saline) 118 % of control.

As for `COc1ccc(C=Nc2c(N)[nH]c(=S)[nH]c2=O)cc1`, the T/C is 115 % of control and 117 % of control under setting [11]; 105 % of control and 117 % of control under setting [12].

As to `CC1CC/C(=C\c2ccccc2)C(=O)/C1=C/c1ccccc1` (stereo unspecified), the T/C under setting [17] is 112 % of control; the T/C (dose: 200.0 mg/kg/injection, schedule: Q04DX003 (ip), vehicle: DMSO) was 87 % of control; the T/C (dose: 400.0 mg/kg/injection, schedule: Q04DX003 (ip), vehicle: DMSO) is 87 % of control.

Take `O=[N+]([O-])c1ccc(/C=C/c2cc(N(CCO)CCO)c3ccccc3n2)cc1`: the T/C reads like this: under setting [14], 94 % of control; under setting [15], 99 % of control; under setting [16], 100 % of control.

For `CCOC(=O)c1c[nH]c2cc(Cl)ccc2c1=O`, the T/C (dose: 75.0 mg/kg/injection, schedule: Q04DX003 (ip), vehicle: Klucel (hydroxypropylcellulose) (HPC)) is 96 % of control.
